The source of these data is patent US20240252693A1, “FOLATE RECEPTOR-TARGETED RADIOTHERAPEUTIC AGENTS AND THEIR USE” (Novartis AG, priority 2021, published 2024).

Molecules are shown by their SMILES. “And” between values parts separate entries of the source, which are not always exact repeats. Equal values may be shown once.

Data set [1] concerns the target T1, folate receptor (FR) on KB cells (Homo sapiens, UniProt P15328).
T1 construct: endogenous in cells; host or cells: KB cells
The experiment in a line: Relative affinity assay: displacement of [3H]folic acid from FR-positive KB cells. The class given is binding. To be noted: inverse molar ratio to displace 50% of 100 nmol/L [3H]FA, 1 h 37 °C, folic acid set to 1. As to the method:
FR-positive KB cells were seeded in 24-well Falcon plates and allowed to form adherent monolayers (>90% confluent) overnight in FDRPMI/10% FCS media. Spent incubation medium was replaced with FFRPMI supplemented with 10% HIFCS and containing 100 nmol/L of [^3H]FA in the absence and presence of increasing concentrations of unlabeled folic acid (FA), Compound 34, Compound 37, or non-targeted control (Table 14). Cells were incubated for 1 h at 37° C. and then rinsed three times with 0.5 mL PBS (phosphate-buffered saline). Five hundred microliters of 1% SDS (sodium dodecyl sulfate) in PBS were added to each well; after 5 min, cell lysates were collected, transferred to individual vials containing 5 mL of scintillation cocktail, and then counted for radioactivity. Cells exposed to only the [^3H]FA in FFRPMI (no competitor) were designated as negative controls, whereas cells exposed to the [^3H]FA plus 1 mmol/L unlabeled FA served as positive controls. Disintegrations per minute (DPM) measured in the latter samples (representing nonspecific binding of label) were subtracted from the DPM values from all samples. Relative affinities were defined as the inverse molar ratio of compound required to displace 50% of [^3H]FA bound to FR on KB cells, and the relative affinity of FA for the FR was set to 1.

The target in data set [2] is T2, folate receptors on FR-positive KB cells (Homo sapiens, UniProt P15328).
T2 construct: endogenous in cells; host or cells: KB cells
T2 sequence (P15328 25-234): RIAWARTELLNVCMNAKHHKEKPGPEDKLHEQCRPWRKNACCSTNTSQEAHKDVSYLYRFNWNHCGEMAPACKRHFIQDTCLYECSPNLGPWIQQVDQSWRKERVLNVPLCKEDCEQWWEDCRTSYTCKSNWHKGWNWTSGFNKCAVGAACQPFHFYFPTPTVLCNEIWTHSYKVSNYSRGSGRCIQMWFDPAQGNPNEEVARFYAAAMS
Briefly: Binding affinity assay: direct binding of 177Lu-labelled compounds to FR-positive KB cells. The following applies: 177Lu-labelled compound, 1 h 37 °C. Here is the method:
FR-positive KB cells and FR-negative A549 cells were seeded in 24-well Falcon plates and allowed to form adherent monolayers (>90% confluent) overnight in FFRPMI/HIFCS. Spent incubation medium was replaced with FFRPMI supplemented with 10% HIFCS containing increasing concentrations (0.78 to 100 nmol/L) of [^177Lu]-Compound 34, [^177Lu]-Compound 37, or [^177Lu]-(non-targeted control) in the absence and presence of 10 μM FA. Cells were incubated for 1 h at 37° C. and then rinsed three times with 0.5 mL PBS. Five hundred microliters of 1% NaOH in PBS were added to each well; after 5 min, cell lysates were collected, transferred to individual tubes, and then counted for radioactivity on a gamma counter. Counts per minute (CPM) values were measured in all samples and plotted against concentration of [^177Lu]-Compound 34, [1^77Lu]-Compound 37, or [^177Lu]-(non-targeted control) using GraphPad Prism 8 program. Dissociation constants (Kd) was calculated using a GraphPad's nonlinear regression one site binding method.

The subject of data set [3] is FR-positive M109 tumor. Briefly: In vivo biodistribution in mice bearing M109 tumors. The following applies: 177Lu chelate. An excerpt: Four- to eight-week-old female nu/nu mice or NSG mice (Harlan Sprague-Dawley, Inc.) were maintained on a standard 12-h light-dark cycle and fed ad libitum with Folate deficient purified rodent diet (TestDiet #AIN-93G) for the duration of the experiment. FR-positive M109 or FR-negative HT29 tumor cells were inoculated in the subcutis dorsal medial area of mice. The biodistribution studies were typically performed when tumors were approximately 400-800 mm^3 in volume. Mice were divided into groups of three, and freshly prepared test articles and competitors were injected through the lateral tail vein in a volume of 100 μL/10 g of PBS. Four h to six days post radioactive-agent dose administration, mice were euthanized and organs (blood, heart, lungs, liver, spleen, and kidneys, intestine, stomach, muscle, brain and tumor) were collected, weighed and placed inside counting vials. Each tissue sample was counted for the activities of radioelement using a gamma-counter. Samples of the injectate were used as decay correction standards. Final bar graphs are expressed as % injected dose per gram of tissue or tumor to kidney ratio, or % tumor to (kidneys+liver+spleen) ratio.

Data set [4] has as its system KB tumor. The experiment in a line: In vivo biodistribution in mice bearing KB tumors. The following applies: 225Ac chelate, 30 nmol/kg.
Data set [5] has as its system FR-positive IGROV-1 tumor. The experiment in a line: In vivo biodistribution in Athymic Nude-Foxn1nu mice bearing IGROV-1 tumors. To be noted: 177Lu chelate, 600 nmol/kg, 24 h post injection, mean ± SD. Here is the method: Six week old female Athymic Nude-Foxn1nu mice (Envigo) were maintained on a standard 12-h light-dark cycle and fed ad libitum with folate deficient purified rodent dies (SSniff #E15321-147) for the duration of the experiment. FR-positive IGROV-1 tumor cells were inoculated in the subcutis dorsal medial area of mice. The biodistribution studies were […]. Mice were divided into groups of four, and freshly prepared test articles were injected through the lateral tail vein in a volume of 100 μL/10 g of PBS. Four h to 24 h post radioactive agent dose administration, mice were euthanized and organs (blood, bone, bowel (large and small), brain, heart, kidneys, liver, lungs, salivary glands, skeletal muscle, skin, spleen, stomach and tumor) were collected, weight and placed inside counting vials. Each tissue sample was counted for the activities of radioelement using a gamma-counter. Samples of the injective were used as decay correction standards. Final bar graph is expressed as % injected dose per gram of tissue FIG. 9.

A short description of data set [6]: Body weight as measure of gross toxicity in the MDA-MB-231 anti-tumor study. The class given is in vivo. To be noted: 300 nmol/3.7 GBq/kg, female nu nu mice bearing MDA-MB-231 tumors. The source says: Four- to eight-week-old female nu nu mice or NSG mice (Harlan Sprague-Dawley, Inc.) were maintained on a standard 12-h light-dark cycle and fed ad libitum with folate deficient purified rodent diet (TestDiet #AIN-93G). FR-positive (human breast adenocarcinoma) or IGROV (human ovarian adenocarcinoma) or KB (human cervical adenocarcinoma) tumor cells were inoculated subcutaneously at the right flank of each mouse. […] Growth of each s.c. tumor was followed by measuring the tumor two times per week. Tumors were measured in two perpendicular directions using Vernier calipers, and their volumes were calculated as 0.5×L×W^2, where L=measurement of longest axis in mm and W=measurement of axis perpendicular to L in mm. A stable disease (SD) was defined as volume reduction of <50% and increase of <50% in two weeks. A partial response (PR) was defined as volume regression >50% but with measurable tumor (>2 mm^3) remaining at all times. Complete response (CR) was defined as a disappearance of measurable tumor mass (<2 mm^3) at some point within the study. Cures were defined as CRs without tumor regrowth within the study time frame. As a general measure of gross toxicity, changes in body weights were determined on the same schedule as tumor volume measurements.

Data set [7] has as its system MDA-MB-231 tumors. The experiment in a line: In vivo anti-tumor activity in mice bearing MDA-MB-231 tumors. To be noted: 300 nmol/3.7 GBq/kg, female nu nu mice, n=5. Here is the method:
Four- to eight-week-old female nu nu mice or NSG mice (Harlan Sprague-Dawley, Inc.) were maintained on a standard 12-h light-dark cycle and fed ad libitum with folate deficient purified rodent diet (TestDiet #AIN-93G). FR-positive (human breast adenocarcinoma) or IGROV (human ovarian adenocarcinoma) or KB (human cervical adenocarcinoma) tumor cells were inoculated subcutaneously at the right flank of each mouse. Mice were dosed with [^177Lu]-Compound 34, [^177Lu]-Compound 37, or [^225Ac]-Compound 5 through the lateral tail vein under sterile conditions in a volume of 100 μL/10 g of phosphate-buffered saline (PBS). Growth of each s.c. tumor was followed by measuring the tumor two times per week. Tumors were measured in two perpendicular directions using Vernier calipers, and their volumes were calculated as 0.5×L×W^2, where L=measurement of longest axis in mm and W=measurement of axis perpendicular to L in mm. A stable disease (SD) was defined as volume reduction of <50% and increase of <50% in two weeks. A partial response (PR) was defined as volume regression >50% but with measurable tumor (>2 mm^3) remaining at all times. Complete response (CR) was defined as a disappearance of measurable tumor mass (<2 mm^3) at some point within the study. Cures were defined as CRs without tumor regrowth within the study time frame. As a general measure of gross toxicity, changes in body weights were determined on the same schedule as tumor volume measurements.

T1 sequence (P15328 25-234): as above

As for `O=C(O)CN1CCN(CC(=O)O)CCN([C@@H](CCC(=O)NC[C@H](NC(=O)c2ccc(NCc3ccc4ccccc4c3)cc2)C(=O)O)C(=O)O)CCN(CC(=O)O)CC1` [(non- targeted control), reference compound], in data set [1], the “Relative Binding Affinity” value is on record as “Non- binder”. Further, in data set [2], the “Direct Binding (Kd, nM)” value is on record as “Non- binder”.
Turning to `Nc1nc2ncc(CNc3ccc(C(=O)N[C@@H](CNC(=O)CN4CCN(CC(=O)O)CCN(CC(=O)O)CCN(CC(=O)O)CC4)C(=O)O)cc3)nc2c(=O)[nH]1` [Compound 3], in data set [3] (100 nmol/kg), the T/Kid is reported as 0.30 +/− 0.04, the T/Liv is 0.93 +/− 0.15, the T/spl is on record as 10.6 +/− 1.8 and the “T^2/kid” value was 1.6 +/− 0.4. In addition, in data set [4], the T/Kid is given as 0.04 +/− 0.01, the T/Liv is 0.5 +/− 0.3 and the T/spl is 6.8 +/− 2.9.
With `Nc1nc2ncc(CNc3ccc(C(=O)N[C@@H](CNC(=O)CCC(C(=O)O)N4CCN(CC(=O)O)CCN(CC(=O)O)CCN(CC(=O)O)CC4)C(=O)O)cc3)nc2c(=O)[nH]1` (stereo partly shown) [Compound 5], in data set [3] (100 nmol/kg), the T/Kid was 0.22 +/− 0.08 and 0.16 +/− 0.01 and 0.25 +/− 0.07; the T/spl was 25.3 +/− 11.4 and 14.6 +/− 3.0 and 24.4 +/− 8.8; the “T^2/kid” value is 1.6 +/− 1.0 and 1.1 +/− 0.3 and 2.0 +/− 1.2. In data set [4], the T/Kid is recorded as 0.09 +/− 0.02, the T/Liv is listed as 3.5 +/− 1.9 and the T/spl is on record as 19.9 +/− 10.9.
As to `Nc1nc2ncc(CNc3ccc(C(=O)N[C@@H](CCCCNC(=O)[C@H](Cc4ccc5ccccc5c4)NC(=O)[C@H]4CC[C@H](CNC(=O)CN5CCN(CC(=O)O)CCN(CC(=O)O)CCN(CC(=O)O)CC5)CC4)C(=O)O)cc3)nc2c(=O)[nH]1` [Compound 23], in data set [3] (300 nmol/kg), the T/Kid is recorded as 0.37 +/− 0.11, the T/Liv is reported as 25.8 +/− 2.4, the T/spl is 108 +/− 12.7 and the “T^2/kid” value was 1.47 +/− 0.66. Besides, in data set [4], the T/Kid is 0.08 +/− 0.03, the T/Liv is 1.8 +/− 0.7 and the T/spl was 10.1 +/− 4.7.
For the compound `Nc1nc2ncc(CNc3ccc(C(=O)N[C@@H](CCCCNC(=O)C[C@H](NC(=O)[C@H](Cc4ccc5ccccc5c4)NC(=O)CNC(=O)CN4CCN(CC(=O)O)CCN(CC(=O)O)CCN(CC(=O)O)CC4)C(=O)O)C(=O)O)cc3)nc2c(=O)[nH]1` [Compound 34, 2,2′,2″-(10-((3S,11S,14S)-1-(4-(((2-amino-4-oxo-3,4-dihydropteridin-6-yl)methyl)amino)phenyl)-3,11-dicarboxy-14-(naphthalen-2-ylmethyl)-1,9,13,16,19-pentaoxo-2,8,12,15,18-pentaazaicosan-20-yl)-1,4,7,10-tetraazacyclododecane-1,4,7-triyl)triacetic acid], in data set [3] (300 nmol/kg), the T/Kid is recorded as 0.55 +/− 0.1, the T/Liv is 25.3 +/− 6.6, the T/spl is 98.3 +/− 25.1 and the “T^2/kid” value is on record as 1.7 +/− 0.9. Further, in data set [3] (600 nmol/kg), the T/Kid is listed as 0.80 +/− 0.18, the T/Liv is on record as 29.1 +/− 5.4, the T/spl is reported as 92.8 +/− 5.4 and the “T^2/kid” value is given as 1.97 +/− 0.7. The “Relative Binding Affinity” value in data set [1] came out at 2.21. Besides, in data set [5], the T/Kid is 0.29 +/− 0.05, the T/Liv was 1.53 +/− 0.57 and the T/spl was 0.49 +/− 0.07.
Regarding `Nc1nc2ncc(CNc3ccc(C(=O)N[C@@H](CCCCNC(=O)COc4ccc(C[C@H](NC(=O)CNC(=O)CN5CCN(CC(=O)O)CCN(CC(=O)O)CCN(CC(=O)O)CC5)C(=O)O)cc4)C(=O)O)cc3)nc2c(=O)[nH]1` [Compound 37, 2,2′,2″-(10-(2-((2-(((S)-2-(4-(2-(((S)-5-(4-(((2-amino-4-oxo-3,4-dihydropteridin-6-yl)methyl)amino)benzamido)-5-carboxypentyl)amino)-2-oxoethoxy)phenyl)-1-carboxyethyl)amino)-2-oxoethyl)amino)-2-oxoethyl)-1,4,7,10-tetraazacyclododecane-1,4,7-triyl)triacetic acid], in data set [3] (300 nmol/kg), the T/Kid is reported as 0.46 +/− 0.14, the T/Liv was 13.2 +/− 4.5, the T/spl is 61.9 +/− 14.4 and the “T^2/kid” value is listed as 1.51 +/− 0.57. In data set [1], the “Relative Binding Affinity” value was determined as 1.53. Further, in data set [5], the T/Kid is listed as 0.15 +/− 0.03, the T/Liv is 1.37 +/− 0.37 and the T/spl is listed as 0.49 +/− 0.17.
For `Nc1nc2ncc(CNc3ccc(C(=O)N[C@@H](CCCCNC(=O)COc4ccc(C[C@H](NC(=O)CNC(=O)CN5CCN(CC(=O)O)CCN(CC(=O)O)CCN(CC(=O)O)CC5)C(=O)O)cc4)C(=O)O)cc3)nc2c(=O)[nH]1` [[^177Lu]-Compound 37, metal not drawn], the “average weight of mice (tolerability)” value in data set [6] is listed as “did not lose any significant weight”. For the same compound, in data set [7], the “complete response (CR)” value was “one” and the “partial responses (PRs)” value is given as “four”. Besides, the affinity in data set [2], expressed as Kd, was 8.99 nM.

The term Kd denotes the constant that tells how readily two partners part at equilibrium.
